Test results as given in ChEMBL document CHEMBL1126498, “Heterocyclic inhibitors of human leukocyte elastase: 3-Hydroxypyridazopyrimidine, 3-hydroxypyridopyrimidine and 3-hydroxyquinazoline-2,4-1H,3H0dione derivatives” (Bioorg Med Chem Lett, 1993).
Active and inactive are the calls of the source. The rule behind the calls is not given here.

Columns and labels:
[1] = biological target: T1, Neutrophil elastase (Homo sapiens) (UniProt P08246); test: The bimolecular rate constant Kobs/[I] to inhibit human leukocyte elastase (HLE) was determined
T1 sequence (whole entry): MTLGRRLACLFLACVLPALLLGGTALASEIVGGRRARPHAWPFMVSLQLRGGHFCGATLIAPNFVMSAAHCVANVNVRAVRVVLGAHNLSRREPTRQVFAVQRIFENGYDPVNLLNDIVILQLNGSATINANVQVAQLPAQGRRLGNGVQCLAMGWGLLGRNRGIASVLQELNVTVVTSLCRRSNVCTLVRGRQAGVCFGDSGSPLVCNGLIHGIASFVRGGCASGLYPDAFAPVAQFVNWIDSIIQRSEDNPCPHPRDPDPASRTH

[2] = biological target: T1, Neutrophil elastase (Homo sapiens); test: The bimolecular rate constant Kobs/[I] to inhibit human leukocyte elastase (HLE) was determined; IA denotes inactive

Row | SMILES | K obs / 1 [1] [M⁻¹ s⁻¹] | K obs / 1 [2]
1 | CCCOP(=O)(OCCC)On1c(=O)[nH]c2ccccc2c1=O | 3160 | –
2 | CCCCCS(=O)(=O)On1c(=O)[nH]c2ccccc2c1=O | 40 | –
3 | CC(C)CS(=O)(=O)On1c(=O)[nH]c2ccccc2c1=O | 170 | –
4 | O=c1[nH]c2ccccc2c(=O)n1OS(=O)(=O)c1ccccc1 | – | inactive
5 | CCCCS(=O)(=O)On1c(=O)[nH]c2ccccc2c1=O | 180 | –
6 | CCCCOP(=O)(OCCCC)On1c(=O)[nH]c2ccccc2c1=O | 3870 | –

Next, values leading:

Row | K obs / 1 [1] [M⁻¹ s⁻¹] | K obs / 1 [2] | SMILES
7 | – | inactive | O=c1[nH]c2nccnc2c(=O)n1OS(=O)(=O)c1ccccc1
8 | 64 | – | CCCCS(=O)(=O)On1c(=O)[nH]c2cccnc2c1=O
9 | – | inactive | CS(=O)(=O)On1c(=O)[nH]c2nccnc2c1=O
10 | – | inactive | CS(=O)(=O)On1c(=O)[nH]c2ccccc2c1=O
11 | 58 | – | CCCCS(=O)(=O)On1c(=O)[nH]c2ccncc2c1=O
12 | 20 | – | CCCCS(=O)(=O)On1c(=O)[nH]c2nccnc2c1=O
